{
  "source": "patent US11000516B2",
  "about": "(priority 2015, dated 2021)",
  "key": {"[1]": {"settings": "over the tolerated dose range; cited from earlier work"}, "DENV2 strain #031 [2]": {"tested_on": "DENV2 strain #031", "assay": "Non-lethal mouse model with CELADEN strain", "format": "in vivo, mice", "experimental": "(§1) EDEN1, EDEN2 and S221 were used as control virus strains. The MOI of each strain was indicated in supplementary FIG. 2. After 48 hours pi, virus titer in the supernatants was determined by standard plaque assay using BHK-21 cells. The percentages of virus titer were calculated based on virus infection control of each strain. Error bars indicate standard deviations from duplicate experiments. (B and C) Mice were inoculated i.v. with DENV2 strains, #031 (2×10^7 pfu), #013 (1×10^7 pfu) or #036 (2×10^7 pfu). […] Average viral copy numbers on day 1-2 were measured using mixed serum of each group. Viral copy number on day 3 was measured individually and the graphs show the average results with standard deviations. A P value less than 0.05 was considered significant (*P<0.05). […] Viral copy number on day 3-6 was measured individually and shown in the graphs as the average results with standard deviations. The VLR from day 3 to day 6 was also shown as the mean value and standard deviations. The number of mice per group is 6.\n(§2) Since infection levels in HuH-7 cells are different among the strains, the MOI of each strain was varied to obtain similar levels of virus titer in the supernatant (FIG. 8)."}, "DENV2 strain #013 [3]": {"tested_on": "DENV2 strain #013", "assay": "Non-lethal mouse model with CELADEN strain", "format": "in vivo, mice", "experimental": "as §1, §2"}, "DENV2 strain #036 [4]": {"tested_on": "DENV2 strain #036", "assay": "Non-lethal mouse model with CELADEN strain", "format": "in vivo, mice", "experimental": "as §1, §2"}, "[5]": {"settings": "human, cited from earlier work"}, "[6]": {"tested_on": "EDEN2 (clinical DENV2 isolate)", "assay": "Antiviral effect in Vero cells, plaque assay of supernatant 48 h pi", "format": "cell-based", "settings": "Dengue virus, DENV2, Vero", "experimental": "(§3) Cells were infected with DENV strains for 1 hour at 37° C. and washed once with culture media. […] The supernatants were subjected to standard plaque assay and the EC50 values were determined using the GraphPad Prism software.\n(§4) NITD008, an adenosine analog inhibitor of DENV polymerase (Yin et al., 2009) was used as a positive control."}, "[7]": {"tested_on": "S221 (mouse-adapted DENV2 strain)", "assay": "Antiviral effect in Vero cells, plaque assay of supernatant 48 h pi", "format": "cell-based", "settings": "S221, MOI 0.3", "experimental": "as §3, §4"}, "[8]": {"tested_on": "EDEN1 (clinical DENV1 isolate)", "assay": "Antiviral effect in Vero cells, plaque assay of supernatant 48 h pi", "format": "cell-based", "experimental": "as §3, §4"}, "EDEN1, EDEN2, S221": {"tested_on": "EDEN1, EDEN2, S221", "assay": "Antiviral effect in BHK-21 cells, all virus strains", "format": "cell-based, DENV", "settings": "Dengue virus", "experimental": "as §3, §4"}, "[9]": {"tested_on": "EDEN2 (clinical DENV2 isolate)", "assay": "Ab-mediated infection of THP-1 cells with enhancing concentration of 4G2 Ab", "format": "cell-based", "settings": "EDEN2, MOI 50, single experiment", "experimental": "as §3, §4"}, "[10]": {"tested_on": "S221 (mouse-adapted DENV2 strain)", "assay": "Ab-mediated infection of THP-1 cells with enhancing concentration of 4G2 Ab", "format": "cell-based", "settings": "S221, MOI 2, single experiment", "experimental": "as §3, §4"}, "[11]": {"tested_on": "EDEN1 (clinical DENV1 isolate)", "assay": "Ab-mediated infection of THP-1 cells with enhancing concentration of 4G2 Ab", "format": "cell-based", "settings": "EDEN1, MOI 2, single experiment", "experimental": "as §3, §4"}, "DENV2 strain #031 [12]": {"tested_on": "DENV2 strain #031", "assay": "CELADEN clinical strain in HuH-7 cells, single concentration, virus titer by plaque assay", "format": "cell-based", "settings": "strain #031, celgosivir 3 mM, 48 hours pi", "experimental": "as §1\n(§5) Total 16 clinical DENV virus were recovered from serum of CELADEN trial patients with 8 of either DENV1 or DENV2 infection. […] The MOI was varied among strains to obtain similar levels of virus titer (within 10-fold difference). The MOI was 0.01 (EDEN1), 0.1 (#005, #048, #004, #033, #010, #013, #022, #036), 0.2 (#016, #017, #011, EDEN2, S221), 0.5 (#049, #038), 1 (#028, #031) and 2 (#025). After 48 hours post-infection, virus titer in the supernatants was determined by standard plaque assay using BHK-21 cells. Error bars indicate standard deviations from duplicate experiments.\nas §2"}, "DENV2 strain #013 [13]": {"tested_on": "DENV2 strain #013", "assay": "CELADEN clinical strain in HuH-7 cells, single concentration, virus titer by plaque assay", "format": "cell-based", "settings": "strain #013, celgosivir 3 mM, 48 hours pi", "experimental": "as §1, §5, §2"}, "DENV2 strain #036 [14]": {"tested_on": "DENV2 strain #036", "assay": "CELADEN clinical strain in HuH-7 cells, single concentration, virus titer by plaque assay", "format": "cell-based", "settings": "strain #036, celgosivir 3 mM, 48 hours pi", "experimental": "as §1, §5, §2"}, "[15]": {"settings": "Dengue virus, DENV2, THP-1, THP-1 with 4G2 Ab"}},
  "data": [
    {"smiles": "CCCC(=O)O[C@H]1CN2CC[C@H](O)[C@@H]2[C@@H](O)[C@@H]1O", "note": "[celgosivir]", "values": [
      {"measurement": "pharmacokinetics dose dependence", "setting": "[1]", "value": "linear with dose"},
      {"measurement": "viremia reduction on day 3 pi", "setting": "DENV2 strain #031 [2]; #031, 50 mg/kg BID from time of infection", "value": 7.8, "unit": "fold"},
      {"measurement": "VLR from day 3 to day 6", "setting": "DENV2 strain #031 [2]; #031, 50 mg/kg BID started during peak viremia (day 3)", "value": 2.63},
      {"measurement": "viremia reduction on day 3 pi", "setting": "DENV2 strain #013 [3]; #013, 50 mg/kg BID from time of infection", "value": 6.8, "unit": "fold"},
      {"measurement": "VLR from day 3 to day 6", "setting": "DENV2 strain #013 [3]; #013, 50 mg/kg BID started during peak viremia (day 3)", "value": 2.32},
      {"measurement": "viremia reduction on day 3 pi", "setting": "DENV2 strain #036 [4]; #036, 50 mg/kg BID from time of infection", "value": 12.5, "unit": "fold"},
      {"measurement": "VLR from day 3 to day 6", "setting": "DENV2 strain #036 [4]; #036, 50 mg/kg BID started during peak viremia (day 3)", "value": 2.14},
      {"measurement": "adverse event profile", "setting": "[5]; CELADEN study regimen", "value": "higher incidence of GI effects, but not increased severity"},
      {"measurement": "maximum daily dose, total dose", "setting": "[5]; in theory", "value": "≤ 600", "unit": "mg"},
      {"measurement": "maximum dose as a single dose", "setting": "[5]; in theory", "value": "≤ 400", "unit": "mg"},
      {"measurement": "EC50", "setting": "[6]; EDEN2, MOI 0.3", "value": 2.43, "unit": "µM"},
      {"measurement": "EC50", "setting": "[6]; EDEN2, MOI 0.3 (text)", "value": 2.4, "unit": "µM"},
      {"measurement": "EC50", "setting": "[7]; Dengue virus, DENV2, Vero", "value": 8.3, "unit": "µM"},
      {"measurement": "EC50", "setting": "[7]", "value": 8.34, "unit": "µM"},
      {"measurement": "EC50", "setting": "[8]; EDEN1, MOI 0.01", "value": 13.8, "unit": "µM"},
      {"measurement": "EC50", "setting": "[8]; EDEN1, MOI 0.3", "value": 51, "unit": "µM"},
      {"measurement": "EC50", "setting": "EDEN1, EDEN2, S221", "value": "< 0.2", "unit": "µM"},
      {"measurement": "EC50", "setting": "[9]; [15]", "value": 0.8, "unit": "µM"},
      {"measurement": "EC50", "setting": "[9]; THP-1 with 4G2 Ab", "value": 0.756, "unit": "µM"},
      {"measurement": "EC50", "setting": "[10]; [15]", "value": 2.1, "unit": "µM"},
      {"measurement": "EC50", "setting": "[10]; THP-1 with 4G2 Ab", "value": 2.14, "unit": "µM"},
      {"measurement": "EC50", "setting": "[11]; THP-1, THP-1 with 4G2 Ab", "value": 3.2, "unit": "µM"},
      {"measurement": "EC50", "setting": "[11]; THP-1 with 4G2 Ab", "value": 3.24, "unit": "µM"},
      {"measurement": "reduction in virus titer in the supernatant of HuH-7 cells", "setting": "DENV2 strain #031 [12]", "value": 52, "unit": "%"},
      {"measurement": "reduction in virus titer in the supernatant of HuH-7 cells", "setting": "DENV2 strain #013 [13]", "value": 67, "unit": "%"},
      {"measurement": "reduction in virus titer in the supernatant of HuH-7 cells", "setting": "DENV2 strain #036 [14]", "value": 70, "unit": "%"}
    ]}
  ]
}
